Measurements taken from patent US20250059174A1, “Pharmaceutical Compounds and Compositions as C-Kit Kinase Inhibitors” (Enanta Pharmaceuticals, Inc., priority 2023, published 2025).

Tests used:
[1] = biological target: Recombinant human c-KIT kinase (Homo sapiens (Human), UniProt P10721); experiment: c-KIT kinase chemiluminescence assay (ADP-Glo); assay type: biochemical; settings: ATP 50 μM
Summary of the method: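 ADP formed by c-KIT on polyEY over 2 h at RT (after 30 min enzyme preincubation; Tris pH 7.5, MgCl2, BSA, DTT buffer) was detected by ADP-Glo luminescence. IC50 and Hill slope were fitted to control-normalized activity across compound concentrations.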

M-07e cells = experiment: M-07e cellular assay (SCF-mediated cell proliferation); assay type: cell-based; settings: Homo sapiens, 72 hours, CellTiter Glo
Summary of the method: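 CellTiter Glo luminescence after 72 h compound exposure in SCF (EC90)-stimulated M-07e cells expressing endogenous human c-KIT.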

Chain of Recombinant human c-KIT kinase (P10721 26-976): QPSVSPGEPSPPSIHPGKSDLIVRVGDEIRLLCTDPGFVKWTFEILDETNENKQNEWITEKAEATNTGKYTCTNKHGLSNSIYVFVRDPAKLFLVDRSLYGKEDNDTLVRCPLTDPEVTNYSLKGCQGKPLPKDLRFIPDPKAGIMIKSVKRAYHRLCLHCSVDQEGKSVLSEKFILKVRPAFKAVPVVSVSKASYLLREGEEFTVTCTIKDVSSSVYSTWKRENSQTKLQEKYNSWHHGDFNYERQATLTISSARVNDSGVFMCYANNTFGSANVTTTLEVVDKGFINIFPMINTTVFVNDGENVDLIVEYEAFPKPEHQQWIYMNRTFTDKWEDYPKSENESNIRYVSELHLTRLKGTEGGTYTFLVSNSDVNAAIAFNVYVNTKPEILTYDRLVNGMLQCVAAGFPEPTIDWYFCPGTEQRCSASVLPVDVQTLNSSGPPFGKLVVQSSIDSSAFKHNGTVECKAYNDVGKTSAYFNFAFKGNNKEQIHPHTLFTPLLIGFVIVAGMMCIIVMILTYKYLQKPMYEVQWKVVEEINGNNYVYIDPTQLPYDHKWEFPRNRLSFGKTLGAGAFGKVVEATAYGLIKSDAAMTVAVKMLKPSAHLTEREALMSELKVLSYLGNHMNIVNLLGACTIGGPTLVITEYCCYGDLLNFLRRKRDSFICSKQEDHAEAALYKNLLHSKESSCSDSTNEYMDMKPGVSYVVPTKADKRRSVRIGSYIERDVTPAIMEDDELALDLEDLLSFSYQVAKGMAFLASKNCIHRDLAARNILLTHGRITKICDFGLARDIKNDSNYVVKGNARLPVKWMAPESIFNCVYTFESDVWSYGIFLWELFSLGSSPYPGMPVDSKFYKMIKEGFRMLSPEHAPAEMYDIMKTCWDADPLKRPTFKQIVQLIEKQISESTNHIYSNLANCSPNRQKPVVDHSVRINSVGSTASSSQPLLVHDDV

| IC50 [1] [nM] | SMILES | EC50 (M-07e cells) [nM] |
| --- | --- | --- |
| 100 to 1000 | Cc1ccc(-c2noc([C@H]3C[C@@H]3F)n2)cc1NC(=O)c1cnc(-c2ccc3c(c2)NC(=O)C3)o1 [Example 301] | > 1000 |
| < 100 | Cc1ccc(-c2noc([C@H]3C[C@@H]3F)n2)cc1NC(=O)c1cnc(-c2ccc3[nH]c(=O)[nH]c3c2)o1 [Example 302] | > 1000 |
| 100 to 1000 | Cc1ccc(-c2noc([C@H]3C[C@@H]3F)n2)cc1NC(=O)c1cnc(-c2ccc3[nH]c4ccccc4c3c2)o1 [Example 303] | 100 to 1000 |
| < 100 | Cc1ccc(-c2noc([C@H]3C[C@@H]3F)n2)cc1NC(=O)c1cnc(-c2ccc3[nH]c(C(F)(F)F)cc3c2)o1 [Example 304] | < 100 |
| > 1000 | Cc1ccc(-c2noc([C@H]3C[C@@H]3F)n2)cc1NC(=O)c1cnc(-c2cccc(N)n2)o1 [Example 305] | > 1000 |
| > 1000 | Cc1ccc(-c2noc([C@H]3C[C@@H]3F)n2)cc1NC(=O)c1cnc(-c2cccc(NC(=O)OC(C)(C)C)n2)o1 [Example 306] | > 1000 |
| > 1000 | Cc1ccc(-c2noc([C@H]3C[C@@H]3F)n2)cc1NC(=O)c1cnc(-c2ccc3oc(=O)[nH]c3c2)o1 [Example 307] | 100 to 1000 |
| 100 to 1000 | Cc1ccc(-c2noc([C@H]3C[C@@H]3F)n2)cc1NC(=O)c1cnc(-c2ccc3[nH]c(C#N)cc3c2)o1 [Example 308-1] | 100 to 1000 |
| < 100 | Cc1ccc(-c2noc([C@H]3C[C@@H](C(F)(F)F)C3)n2)cc1NC(=O)c1cnc(-c2ccc3c(c2)CC(=O)N3)o1 [Example 308-2] | < 100 |
| < 100 | Cc1ccc(-c2noc([C@H]3C[C@@H](OC(F)(F)F)C3)n2)cc1NC(=O)c1cnc(-c2ccc3c(c2)CC(=O)N3)o1 [Example 308-3] | < 100 |
| 100 to 1000 | Cc1ccc(-c2noc([C@H]3C[C@@H]3F)n2)cc1NC(=O)c1cnc(-c2ccc3c(c2)C2(CC2)C(=O)N3)o1 [Example 308-4] | 100 to 1000 |
| > 1000 | Cc1ccc(-c2noc([C@H]3C[C@@H]3F)n2)cc1NC(=O)c1cnc(-n2cccn2)o1 [Example 308-5] | > 1000 |
| > 1000 | Cc1cc(C)n(-c2ncc(C(=O)Nc3cc(-c4noc([C@H]5C[C@@H]5F)n4)ccc3C)o2)n1 [Example 308-6] | > 1000 |
| > 1000 | Cc1ccc(-c2noc([C@H]3C[C@@H]3F)n2)cc1NC(=O)c1cnc(-c2c(C)nn(CC(C)(C)O)c2C)o1 [Example 308-7] | > 1000 |
| > 1000 | Cc1ccc(-c2noc([C@H]3C[C@@H]3F)n2)cc1NC(=O)c1cnc(-c2ccc3c(c2)C2(CCN(C(=O)OC(C)(C)C)CC2)C(=O)N3)o1 [Example 308-8] | 100 to 1000 |
| > 1000 | Cc1cc(F)c(-c2noc([C@H]3C[C@@H]3F)n2)cc1NC(=O)c1cnc(-c2ccc3c(cnn3C(=O)OC(C)(C)C)c2)o1 [Example 308-10] | 100 to 1000 |
| 100 to 1000 | Cc1cc(F)c(-c2noc([C@H]3C[C@@H]3F)n2)cc1NC(=O)c1cnc(-c2ccc3[nH]ncc3c2)o1 [Example 308-11] | 100 to 1000 |
| > 1000 | Cc1ncc(-c2noc([C@H]3C[C@@H]3F)n2)cc1NC(=O)c1cnc(-c2ccc3c(c2)CC(=O)N3)o1 [Example 308-12] | 100 to 1000 |
| > 1000 | Cc1ccc(-c2noc([C@H]3C[C@@H]3F)n2)cc1NC(=O)c1cnc(-c2ccc(-n3cccn3)cc2)o1 [Example 308-13] | > 1000 |
| < 100 | Cc1ccc(-c2noc([C@H]3C[C@@H]3F)n2)cc1NC(=O)c1cnc(-c2ccc3[nH]c(=O)ccc3c2)o1 [Example 308-14] | < 100 |
| 100 to 1000 | Cc1ccc(-c2noc([C@H]3C[C@@H]3F)n2)cc1NC(=O)c1cnc(-c2ccc3c(c2)CCC(=O)N3)o1 [Example 308-15] | 100 to 1000 |
| 100 to 1000 | Cc1ccc(-c2noc([C@H]3C[C@@H]3F)n2)cc1NC(=O)c1cnc(-c2ccc(-c3cnn(C)c3)cc2)o1 [Example 308-16] | 100 to 1000 |
| < 100 | Cc1ccc(-c2noc([C@H]3C[C@@H]3F)n2)cc1NC(=O)c1cnc(-c2cnc3[nH]ccc3c2)o1 [Example 308-17] | < 100 |
| 100 to 1000 | Cc1ccc(-c2noc([C@H]3C[C@@H]3F)n2)cc1NC(=O)c1cnc(-c2ccc3nccn3c2)o1 [Example 308-18] | 100 to 1000 |
| 100 to 1000 | CC(=O)Nc1ccc(-c2ncc(C(=O)Nc3cc(-c4noc([C@H]5C[C@@H]5F)n4)ccc3C)o2)cc1 [Example 308-19] | 100 to 1000 |
| > 1000 | CC(=O)Nc1ccc(-c2ncc(C(=O)Nc3cc(-c4noc([C@H]5C[C@@H]5F)n4)ccc3C)o2)cn1 [Example 308-20] | 100 to 1000 |

| IC50 [1] [nM] | SMILES | EC50 (M-07e cells) [nM] |
| --- | --- | --- |
| < 100 | Cc1ccc(-c2noc([C@H]3C[C@@H]3F)n2)cc1NC(=O)c1cnc(-c2ccc3[nH]nc(C)c3c2)o1 [Example 308-21] | < 100 |
| 100 to 1000 | Cc1ccc(-c2noc([C@H]3C[C@@H]3F)n2)cc1NC(=O)c1cnc(-c2ccc(NS(C)(=O)=O)cc2)o1 [Example 308-22] | 100 to 1000 |
| < 100 | Cc1ccc(-c2noc([C@H]3C[C@@H]3F)n2)cc1NC(=O)c1cnc(-c2cccc3cn[nH]c23)o1 [Example 308-23] | > 1000 |
| < 100 | Cc1ccc(-c2noc([C@H]3C[C@@H]3F)n2)cc1NC(=O)c1cnc(-c2ccc3c(c2)OCCN3)o1 [Example 308-24] | < 100 |
| 100 to 1000 | Cc1ccc(-c2noc([C@H]3C[C@@H]3F)n2)cc1NC(=O)c1cnc(-c2ccc3c(c2)OC(C)(C)C(=O)N3)o1 [Example 308-25] | 100 to 1000 |
| < 100 | CCOC(=O)c1cc2cc(-c3ncc(C(=O)Nc4cc(-c5noc([C@H]6C[C@@H]6F)n5)ccc4C)o3)ccc2[nH]1 [Example 308-26] | 100 to 1000 |
| < 100 | Cc1cc2cc(-c3ncc(C(=O)Nc4cc(-c5noc([C@H]6C[C@@H]6F)n5)ccc4C)o3)ccc2[nH]1 [Example 308-27] | < 100 |
| 100 to 1000 | Cc1ccc(-c2noc([C@H]3C[C@@H]3F)n2)cc1NC(=O)c1cnc(-c2cccc(NS(C)(=O)=O)c2)o1 [Example 308-28] | 100 to 1000 |
| < 100 | Cc1ccc(-c2noc([C@H]3C[C@@H]3F)n2)cc1NC(=O)c1cnc(-c2cccc3[nH]ccc23)o1 [Example 308-29] | 100 to 1000 |
| 100 to 1000 | CNS(=O)(=O)c1cccc(-c2ncc(C(=O)Nc3cc(-c4noc([C@H]5C[C@@H]5F)n4)ccc3C)o2)c1 [Example 308-30] | 100 to 1000 |
| 100 to 1000 | Cc1ccc(-c2noc([C@H]3C[C@@H]3F)n2)cc1NC(=O)c1cnc(-c2ccc3cn(C)nc3c2)o1 [Example 308-31] | 100 to 1000 |
| < 100 | Cc1ccc(-c2noc([C@H]3C[C@@H]3F)n2)cc1NC(=O)c1cnc(-c2ccc3cnn(C)c3c2)o1 [Example 308-32] | 100 to 1000 |
| > 1000 | Cc1ccc(-c2noc([C@H]3C[C@@H]3F)n2)cc1NC(=O)c1cnc(-c2cccc3c2NC(=O)C3)o1 [Example 308-33] | > 1000 |
| 100 to 1000 | Cc1ccc(-c2noc([C@H]3C[C@@H]3F)n2)cc1NC(=O)c1cnc(-c2cccc3[nH]c(=O)[nH]c23)o1 [Example 308-34] | > 1000 |
| 100 to 1000 | Cc1ccc(-c2noc([C@H]3C[C@@H]3F)n2)cc1NC(=O)c1cnc(-c2ccc3c(c2)oc(=O)n3C)o1 [Example 308-35] | 100 to 1000 |
| < 100 | Cc1ccc(-c2noc([C@H]3C[C@@H]3F)n2)cc1NC(=O)c1cnc(-c2ccc3c(c2)NCCO3)o1 [Example 308-36] | < 100 |
| 100 to 1000 | Cc1ccc(-c2noc([C@H]3C[C@@H]3F)n2)cc1NC(=O)c1cnc(-c2ccc3c(c2)C(C)(C)C(=O)N3)o1 [Example 308-37] | 100 to 1000 |
| 100 to 1000 | Cc1ccc(-c2noc([C@H]3C[C@@H]3F)n2)cc1NC(=O)c1cnc(-c2cccc3nc[nH]c23)o1 [Example 308-38] | 100 to 1000 |
| 100 to 1000 | Cc1ccc(-c2noc([C@H]3C[C@@H]3F)n2)cc1NC(=O)c1cnc(-c2ccc3nc[nH]c3c2)o1 [Example 308-39] | 100 to 1000 |
| < 100 | Cc1nc2cc(-c3ncc(C(=O)Nc4cc(-c5noc([C@H]6C[C@@H]6F)n5)ccc4C)o3)ccc2[nH]1 [Example 308-40] | < 100 |
| 100 to 1000 | Cc1ccc(-c2noc([C@H]3C[C@@H]3F)n2)cc1NC(=O)c1cnc(-c2cccc3cc[nH]c23)o1 [Example 308-41] | > 1000 |
| 100 to 1000 | Cc1ccc(-c2noc([C@H]3C[C@@H]3F)n2)cc1NC(=O)c1cnc(-c2ccc(F)c3[nH]ccc23)o1 [Example 308-42] | 100 to 1000 |
| < 100 | Cc1ccc(-c2noc([C@H]3C[C@@H]3F)n2)cc1NC(=O)c1cnc(-c2cccc3[nH]ncc23)o1 [Example 308-43] | 100 to 1000 |
| 100 to 1000 | Cc1ccc(-c2noc([C@H]3C[C@@H]3F)n2)cc1NC(=O)c1cnc(-c2ccc(F)c3[nH]ncc23)o1 [Example 308-44] | 100 to 1000 |
| 100 to 1000 | Cc1ccc(-c2noc([C@H]3C[C@@H]3F)n2)cc1NC(=O)c1cnc(-c2ccc3nnn(C)c3c2)o1 [Example 308-46] | 100 to 1000 |
| 100 to 1000 | Cc1ccc(-c2noc([C@H]3C[C@@H]3F)n2)cc1NC(=O)c1cnc(-c2ccc(NC(N)=O)cc2)o1 [Example 308-47] | 100 to 1000 |

| SMILES | IC50 [1] [nM] | EC50 (M-07e cells) [nM] |
| --- | --- | --- |
| Cc1ccc(-c2noc([C@H]3C[C@@H]3F)n2)cc1NC(=O)c1cnc(-c2ccc3c(c2)C2(CCNCC2)C(=O)N3)o1 [Example 308-9] | 100 to 1000 | > 1000 |
